Consider 24 molecules from patent publication US20180099931A1 (AbbVie S.à.r.l., priority 2016, published 2018).

Where two headings read alike, the source gives them in different places. Some results are limits rather than exact numbers.

This assay has as its target T1, F508delCFTR (Homo sapiens, UniProt P13569, DEL508-508).
T1 construct: expressed in transfected cells; host or cells: CFBE41o- human lung-derived epithelial cells (CFBE4lo-F508delCFTR-HRP), doxycycline-inducible
The assay is described as follows: Cell Surface Expression-Horse Radish Peroxidase (CSE-HRP) Assay.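 For Maximum % activity (with co-corrector): co-corrector and positive control are both the same reference corrector at 2 µM.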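 For Maximum % activity (without co-corrector): percent of the 2 µM on-plate positive control corrector response above DMSO.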 It counts as cell-based. The settings on record: for Emax: read-out: Maximum % activity (without co-corrector).

The mark [1] stands for this setting: CSE-HRP, test compound without co-corrector, read-out: EC50 (without co-corrector).
[2] abbreviates: CSE-HRP, with co-corrector (2 μM of 3-[(2R,4R)-4-({[1-(2,2-difluoro-1,3-benzodioxol-5-yl)cyclopropyl]carbonyl}amino)-7-methoxy-3,4-dihydro-2H-chromen-2-yl]benzoic acid), read-out: EC50 (with co-corrector).
The mark [3] stands for this setting: CSE-HRP, with co-corrector (2 μM), maximum at any tested concentration, normalized to on-plate positive control.
Where [4] appears, read: CSE-HRP, without co-corrector, maximum at any tested concentration, normalized to on-plate positive control.
[5] abbreviates: test compound without co-corrector, read-out: EC50 (without co-corrector).
Where [6] appears, read: with co-corrector (2 μM of 3-[(2R,4R)-4-({[1-(2,2-difluoro-1,3-benzodioxol-5-yl)cyclopropyl]carbonyl}amino)-7-methoxy-3,4-dihydro-2H-chromen-2-yl]benzoic acid), read-out: EC50 (with co-corrector).
Setting [7] is: with co-corrector (2 μM), maximum at any tested concentration, normalized to on-plate positive control.
Where [8] appears, read: without co-corrector, maximum at any tested concentration, normalized to on-plate positive control.
Where [9] appears, read: test compound without co-corrector, maximum at any tested concentration, normalized to on-plate positive control.
[10] abbreviates: with co-corrector (2 μM of 3-[(2R,4R)-4-({[1-(2,2-difluoro-1,3-benzodioxol-5-yl)cyclopropyl]carbonyl}amino)-7-methoxy-3,4-dihydro-2H-chromen-2-yl]benzoic acid), maximum at any tested concentration, normalized to on-plate positive control.

T1 sequence (P13569 with tags, fused parts or gaps DEL508-508): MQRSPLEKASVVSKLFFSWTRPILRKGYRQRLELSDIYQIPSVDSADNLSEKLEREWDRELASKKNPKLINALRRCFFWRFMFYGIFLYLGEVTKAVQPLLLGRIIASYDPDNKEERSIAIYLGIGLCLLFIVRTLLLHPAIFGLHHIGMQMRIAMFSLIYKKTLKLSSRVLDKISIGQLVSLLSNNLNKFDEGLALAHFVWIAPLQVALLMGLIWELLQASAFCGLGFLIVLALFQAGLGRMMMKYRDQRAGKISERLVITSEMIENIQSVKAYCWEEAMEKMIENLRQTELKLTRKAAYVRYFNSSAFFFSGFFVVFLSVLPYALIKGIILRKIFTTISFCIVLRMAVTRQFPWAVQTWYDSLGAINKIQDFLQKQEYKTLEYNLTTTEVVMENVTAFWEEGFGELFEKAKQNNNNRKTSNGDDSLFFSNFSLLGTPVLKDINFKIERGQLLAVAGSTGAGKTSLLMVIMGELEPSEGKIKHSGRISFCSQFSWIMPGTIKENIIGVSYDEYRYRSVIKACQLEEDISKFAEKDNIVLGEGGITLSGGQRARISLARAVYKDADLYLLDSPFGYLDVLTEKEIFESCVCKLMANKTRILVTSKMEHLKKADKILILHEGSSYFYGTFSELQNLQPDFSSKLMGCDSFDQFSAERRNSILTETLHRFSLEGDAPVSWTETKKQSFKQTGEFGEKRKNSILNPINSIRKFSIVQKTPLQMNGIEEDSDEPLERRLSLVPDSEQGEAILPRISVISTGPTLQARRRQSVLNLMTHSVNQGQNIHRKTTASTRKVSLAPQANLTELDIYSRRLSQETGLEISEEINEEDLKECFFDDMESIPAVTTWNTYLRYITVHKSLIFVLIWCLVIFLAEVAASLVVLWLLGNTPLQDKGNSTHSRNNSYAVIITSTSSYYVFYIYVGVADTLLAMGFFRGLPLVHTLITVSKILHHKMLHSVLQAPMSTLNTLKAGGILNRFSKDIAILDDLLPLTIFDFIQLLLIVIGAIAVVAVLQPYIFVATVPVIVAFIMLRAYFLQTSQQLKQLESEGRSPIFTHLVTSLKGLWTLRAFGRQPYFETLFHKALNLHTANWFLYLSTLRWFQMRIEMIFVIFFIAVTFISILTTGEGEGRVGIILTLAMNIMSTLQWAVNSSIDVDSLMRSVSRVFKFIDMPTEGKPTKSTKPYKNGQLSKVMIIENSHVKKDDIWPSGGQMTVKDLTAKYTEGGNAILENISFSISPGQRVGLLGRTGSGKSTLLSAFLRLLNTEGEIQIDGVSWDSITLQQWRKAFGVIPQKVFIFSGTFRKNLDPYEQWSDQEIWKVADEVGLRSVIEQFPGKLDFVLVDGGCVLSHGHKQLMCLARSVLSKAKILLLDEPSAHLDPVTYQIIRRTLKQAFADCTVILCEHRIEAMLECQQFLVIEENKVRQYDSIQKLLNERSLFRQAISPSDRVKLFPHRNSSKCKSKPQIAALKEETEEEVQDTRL

Consider `COc1ncc(C(F)(F)F)cc1CN[C@H]1[C@H](C(C)(C)C)[C@@H](C(=O)O)N(C(=O)C2CCC2)[C@H]1c1ccccc1C(F)(F)F` [Example I-280], for which the EC50 fell in the range of 1 to 10 µM under setting [1] and 1 to 10 µM under setting [2]. In addition, under setting [3], the “Maximum % activity (with co-corrector)” value is “++ (≥150 and <350)”. Under setting [4], the Emax is less than 100%.
On to `COc1ccc(C(C)(C)C)cc1CN[C@H]1[C@H](C(C)(C)C)[C@@H](C(=O)O)N(C(=O)OC(C)C)[C@H]1c1ccccc1F` [Example I-221], for which the EC50 under setting [5] lay within 1 to 10 µM and the EC50 under setting [6] is 1 to 10 µM. Further, the “Maximum % activity (with co-corrector)” value under setting [7] is recorded as “+++ (≥350)”. Also, under setting [8], the Emax is more than 200%.
Regarding `COc1ccc(C(C)(C)C)cc1CN[C@H]1[C@H](C(C)(C)C)[C@@H](C(=O)O)N(C(=O)CN2CCCC2)[C@H]1c1ccccc1` [II-187], the half-maximal effective concentration (EC50) under setting [1] lay in the range of 1 to 10 µM and the 50% effective concentration (EC50) under setting [2] was in the range of 1 to 10 µM. The “Maximum % activity (with co-corrector)” value under setting [3] is “++ (≥150 and <350)”. For the same molecule, under setting [4], the Emax is less than 100%.
In the case of `COc1ccc(C(C)(C)C)cc1CN[C@H]1[C@H](C(C)(C)C)[C@@H](C(=O)O)N(C(=O)C(C)n2cc(Cl)c(C)n2)[C@H]1c1ccccc1` (single isomer, unassigned) [II-237], the half-maximal effective concentration (EC50) is 1 to 10 µM under setting [1] and 1 to 10 µM under setting [2]. Also, the “Maximum % activity (with co-corrector)” value under setting [3] is “+++ (≥350)”. Further, under setting [4], the “Maximum % activity (without co-corrector)” value is “+ (<100)”.
As for `COc1ccc(C(F)(F)F)cc1CN[C@H]1[C@H](C(C)(C)C)[C@@H](C(=O)O)N(C(=O)OC(C)C)[C@H]1c1cccc(Cl)c1` [Example I-252], the 50% effective concentration (EC50) by setting is: under setting [1], 1 to 10 µM; under setting [2], 1 to 10 µM. For the same molecule, the “Maximum % activity (with co-corrector)” value under setting [3] is “+++ (≥350)”. Also, under setting [4], the Emax was more than 200%.
On to `COc1cc(C(F)(F)F)ccc1CN[C@H]1[C@H](C(C)(C)C)[C@@H](C(=O)O)N(C(=O)OC(C)C)[C@H]1c1cccnc1N1CCC1` [Example I-275], for which the half-maximal effective concentration (EC50) under setting [1] was 1 to 10 µM and the EC50 under setting [2] lay within 1 to 10 µM. For the same molecule, under setting [3], the “Maximum % activity (with co-corrector)” value is “+++ (≥350)”. Besides, under setting [4], the Emax was more than 200%.
With `COc1ncc(C(C)(C)C)cc1CN[C@H]1[C@H](C(C)(C)C)[C@@H](C(=O)O)N(C(=O)Cc2c(F)cccc2F)[C@H]1c1ccccc1` [II-301], the EC50 by setting is: under setting [1], 1 to 10 µM; under setting [2], less than 1 µM. Also, under setting [3], the “Maximum % activity (with co-corrector)” value is “+++ (≥350)”. Under setting [4], the Emax is more than 200%.
Turning to `COc1ccc(C(C)(C)C)cc1CN[C@H]1[C@H](C(C)(C)C)[C@@H](C(=O)O)N(C(=O)[C@@H]2C[C@H]3CC[C@@H]2O3)[C@H]1c1cccnc1OC` (relative stereo) [II-522], the Emax under setting [9] was less than 100%. For the same molecule, the 50% effective concentration (EC50) is 1 to 10 µM under setting [5] and 1 to 10 µM under setting [6]. Moreover, the “Maximum % activity (with co-corrector)” value under setting [10] was “+++ (≥350)”.
Regarding `COc1ccc(C(C)(C)C)cc1CN[C@H]1[C@H](C(C)(C)C)[C@@H](C(=O)O)N(C(=O)c2cc(-c3ccccc3)nn2C)[C@H]1c1ccccc1` [II-226], the EC50 was less than 1 µM under setting [1] and less than 1 µM under setting [2]. The “Maximum % activity (with co-corrector)” value under setting [3] is reported as “+++ (≥350)”. Further, the Emax under setting [4] lay within 100 to 200%.
Regarding `COc1ncc(C(F)(F)F)cc1N[C@@H]1[C@@H](C(C)(C)OC)[C@H](C(=O)O)N(C(=O)C2CCCCC2)[C@@H]1c1ccccc1` (racemic) [II-89], the EC50 by setting is: under setting [1], 1 to 10 µM; under setting [2], 1 to 10 µM. Further, the “Maximum % activity (with co-corrector)” value under setting [3] is “++ (≥150 and <350)”. The Emax under setting [4] is less than 100%.
Turning to `COc1ccc(C(C)(C)C)cc1CN[C@H]1[C@H](C(C)(C)C)[C@@H](C(=O)O)N(C(=O)C2CCC2)[C@H]1c1cccnc1N1CCC1` [Example 102, (2S,3S,4S,5S)-5-[2-(azetidin-1-yl)pyridin-3-yl]-3-tert-butyl-4-{[(5-tert-butyl-2-methoxyphenyl)methyl]amino}-1-(cyclobutanecarbonyl)pyrrolidine-2-carboxylic acid], the EC50 runs as follows: under setting [5], 1 to 10 µM; under setting [6], 1 to 10 µM. In addition, the “Maximum % activity (with co-corrector)” value under setting [7] is listed as “+++ (≥350)”. Also, the Emax under setting [8] fell in the range of 100 to 200%.
For the molecule `COc1cc(C#N)ccc1CN[C@@H]1[C@@H](C(C)(C)C)[C@H](C(=O)O)N(C(=O)C2CCCCC2)[C@@H]1c1ccccc1` (racemic) [II-74], the concentration for a half-maximal effect (EC50) is 1 to 10 µM under setting [1] and 1 to 10 µM under setting [2]. Besides, the “Maximum % activity (with co-corrector)” value under setting [3] is recorded as “+++ (≥350)”. In addition, the Emax under setting [4] is less than 100%.
Take `COc1ccc(OC(F)(F)F)cc1CN[C@H]1[C@H](C(C)(C)C)[C@@H](C(=O)O)N(C(=O)C2CCCCC2)[C@H]1c1ccccc1` [II-190]: the EC50 is 1 to 10 µM under setting [1] and less than 1 µM under setting [2]. Moreover, the “Maximum % activity (with co-corrector)” value under setting [3] is recorded as “+++ (≥350)”. Moreover, under setting [4], the Emax is more than 200%.
On the same counts, the results for `CCOc1cc2c(cc1CN[C@H]1[C@H](C(C)(C)C)[C@@H](C(=O)O)N(C(=O)C3CCCCC3)[C@H]1c1ccccc1)CCC2` [II-129] are 1 to 10 µM, 1 to 10 µM, “+++ (≥350)” and 100 to 200%.
On to `COc1ccc(C2(C)CCC2)cc1CN[C@H]1[C@H](C(C)(C)C)[C@@H](C(=O)O)N(C(=O)[C@@H]2CCCCO2)[C@H]1c1cccnc1N(C)C` [Example 60, (2S,3S,4S,5S)-3-tert-butyl-5-[2-(dimethylamino)pyridin-3-yl]-4-({[2-methoxy-5-(1-methylcyclobutyl)phenyl]methyl}amino)-1-[(2S)-oxane-2-carbonyl]pyrrolidine-2-carboxylic acid], for which the EC50 was in the range of 1 to 10 µM under setting [5] and 1 to 10 µM under setting [6]. For the same molecule, under setting [7], the “Maximum % activity (with co-corrector)” value is given as “+++ (≥350)”. Also, under setting [8], the Emax was more than 200%.
For the molecule `COc1ccc(C(F)(F)F)cc1CN[C@H]1[C@H](C(C)(C)C)[C@@H](C(=O)O)N(C(=O)[C@H]2CCC[C@H](OC)C2)[C@H]1c1ccccc1` [Example I-60], the EC50 by setting is: under setting [5], 1 to 10 µM; under setting [6], 1 to 10 µM. Under setting [7], the “Maximum % activity (with co-corrector)” value is “+++ (≥350)”. For the same molecule, the Emax under setting [8] was more than 200%.
For `COc1ccc(C(C)(C)C)cc1CN[C@H]1[C@H](C(C)(C)C)[C@@H](C(=O)O)N(C(=O)Cc2cccc(C#N)c2)[C@H]1c1ccccc1` [II-240], the EC50 is 1 to 10 µM under setting [1] and less than 1 µM under setting [2]. The “Maximum % activity (with co-corrector)” value under setting [3] is “+++ (≥350)”. The Emax under setting [4] was more than 200%.
On the same counts, the results for `COc1ncc(Br)cc1CN[C@H]1[C@H](C(C)(C)C)[C@@H](C(=O)O)N(C(=O)OC(C)C)[C@H]1c1ccccc1` [II-170] are 1 to 10 µM, 1 to 10 µM, “+++ (≥350)” and more than 200%.
For the molecule `COc1ccc(C(F)(F)F)cc1CN[C@H]1[C@H](C(C)(C)C)[C@@H](C(=O)O)N(C(=O)C2OC[C@@H]3CCC[C@H]23)[C@H]1c1ccccc1` (relative stereo) [Example I-108], the half-maximal effective concentration (EC50) under setting [5] lay within 1 to 10 µM and the concentration for a half-maximal effect (EC50) under setting [6] fell in the range of 1 to 10 µM. Moreover, the “Maximum % activity (with co-corrector)” value under setting [7] is “+++ (≥350)”. Besides, the Emax under setting [8] was 100 to 200%.
On to `COc1nc(C(C)(C)C)ccc1CN[C@H]1[C@H](C(C)(C)C)[C@@H](C(=O)O)N(C(=O)C2CCCCC2)[C@H]1c1ccccc1F` [II-525], for which, under setting [9], the Emax is 100 to 200%. In addition, the EC50 is 1 to 10 µM under setting [5] and 1 to 10 µM under setting [6]. Moreover, the “Maximum % activity (with co-corrector)” value under setting [10] is “+++ (≥350)”.
Consider `COc1ccc(Cl)cc1CN[C@@H]1[C@@H](C(C)(C)C)[C@H](C(=O)O)N(C(=O)OC(C)C)[C@@H]1c1cccnc1N(C)C` (racemic) [II-28], for which the EC50 was in the range of 1 to 10 µM under setting [1] and 1 to 10 µM under setting [2]. The “Maximum % activity (with co-corrector)” value under setting [3] is “+++ (≥350)”. The Emax under setting [4] is more than 200%.
For the molecule `COc1ccc(C(F)(F)F)cc1CN[C@H]1[C@H](C(C)(C)C)[C@@H](C(=O)O)N(C(=O)C2Cc3ccccc3O2)[C@H]1c1ccccc1` (single isomer, unassigned) [II-265], the concentration for a half-maximal effect (EC50) is 1 to 10 µM under setting [1] and 1 to 10 µM under setting [2]. The “Maximum % activity (with co-corrector)” value (CSE-HRP, with co-corrector (2 μM), maximum at any tested concentration, normalized to on-plate positive control, 2 µM) was “++ (≥150 and <350)”. In addition, under setting [4], the Emax is less than 100%.
For `COc1ccc(OC(F)(F)F)cc1CN[C@H]1[C@H](C(C)(C)C)[C@@H](C(=O)O)N(C(=O)OC(C)C)[C@H]1c1ccccc1C(C)C` [II-560], under setting [9], the Emax was more than 200%. The concentration for a half-maximal effect (EC50) is, setting by setting: under setting [5], 1 to 10 µM; under setting [6], less than 1 µM. The “Maximum % activity (with co-corrector)” value under setting [10] is “+++ (≥350)”.
With `COc1ccc(C(F)(F)F)cc1CN[C@@H]1[C@@H](C(C)(C)C)[C@H](C(=O)O)N(C(=O)[C@H](OC)c2ccccc2)[C@@H]1c1ccccc1N(C)C` [III-98], the Emax under setting [9] was less than 100%. Also, the EC50 under setting [5] is more than 10 µM and the EC50 under setting [6] lay in the range of 1 to 10 µM. The “Maximum % activity (with co-corrector)” value under setting [7] was “++ (≥150 and <350)”.
